Reference: PubChem BioAssay (NCI)
“And” between values parts separate entries of the source, which are not always exact repeats. Equal entries are not always repeated.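 All cell lines were grown in 96-well plates and treated with compound for 48 hours. GI50: concentration for 50% inhibition of growth. At the TGI there is no net growth.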

Key:
Assay in all cases: NCI tumour cell line growth inhibition, 48 h
[1] = tested on: DMS 273 small cell lung
[2] = tested on: DLD-1 colon
[3] = tested on: XF 498 CNS
[4] = tested on: M19-MEL melanoma
[5] = tested on: KM20L2 colon
[6] = tested on: SNB-78 CNS
[7] = tested on: LXFL 529 NSCLC
[8] = tested on: HOP-18 NSCLC
[9] = tested on: RXF-631 renal
[10] = tested on: P388 leukemia
[11] = tested on: SN12K1 renal

Compound | TGI [1] | TGI [2] | TGI [3] | TGI [4] [µM] | TGI [5] | TGI [6] [µM] | TGI [7] | GI50 [8] | TGI [8] | TGI [9] [µM] | GI50 [7] | GI50 [1] [µM] | GI50 [2] | TGI [10] [µM] | GI50 [3] | GI50 [4] | TGI [11] [µM] | GI50 [5] | GI50 [6] | GI50 [9] [µM]
CCOC(=O)C(=O)C(C#N)c1ccc(Cl)cc1 (configuration not stated) | > 100 µM | > 100 µM | > 100 µM | > 100 | > 100 µM | > 100 | > 100 µM | – | – | – | – | – | – | – | – | – | – | – | – | –
Cc1cc(Cl)cc2c1NC(=O)C2(O)C(C(=O)c1ccccc1)c1ccccc1 (configuration not stated) | > 100 µM | > 100 µM | 82.7 µM and > 100 µM | 10 | > 100 µM | > 100 | > 100 µM and 72.8 µM | > 100 µM and 22 µM | > 100 µM and 95.7 µM | > 100 | 56.2 µM and 24 µM | – | – | – | – | – | – | – | – | –
O=C(O)CCC1c2[nH]c3ccccc3c2CCN1Cc1ccccc1 (configuration not stated) | > 100 µM | > 100 µM | – | > 100 | > 100 µM | > 100 | > 100 µM | – | > 100 µM | > 100 | – | – | – | – | – | – | – | – | – | –
O=C(CC1(O)C(=O)Nc2ccccc21)c1ccccc1O (configuration not stated) | > 100 µM | > 100 µM | > 100 µM | > 100 | > 100 µM | > 100 | > 100 µM | – | – | > 100 | – | – | – | – | – | – | – | – | – | –
CC1[C@@H]2CC=C3[C@H]4CCC5Cc6nc7c(nc6C[C@@]5(C)C4CC(=O)[C@]32CO[C@]12OC(C)(C)CC2O)CC1CC[C@@H]2C3=C[C@H]4O[C@@]5(O[C@@](C)(CO)C[C@@H]5O)C(C)[C@@]4(O)[C@]3(C)[C@@H](O)CC2[C@]1(C)C7 (some centres not stated) | 0.000328 µM and 0.000802 µM | 0.709 µM and > 3.65 µM | 0.424 µM and 1.8 µM | > 3.65 | 0.0349 µM and 0.0754 µM | – | 0.00244 µM | – | 0.393 µM and > 3.65 µM | 0.00275 | 0.000384 µM | 0.000365 | 0.0416 µM and 0.0575 µM | 0.000638 | 0.000725 µM and 0.00479 µM | 0.617 µM and 2.48 µM | 0.397 | 0.00119 µM and 0.00294 µM | 0.000777 µM and 0.00329 µM | 0.000312
N#Cc1cccc(C2C(=O)c3ccc(C(=O)c4ccc5c(c4)C(=O)N(c4ccc(Oc6ccc(N7C(=O)c8ccc(C(=O)c9ccc%10c(c9)C(=O)N(c9cccc(C#N)c9)C%10=O)cc8C7=O)cc6)cc4)C5=O)cc3C2=O)c1 (configuration not stated) | > 100 µM | > 100 µM | > 100 µM | > 100 | > 100 µM | – | > 100 µM | – | – | > 100 | – | – | – | – | – | – | – | – | – | –
N#CCCN(c1ccc(C=O)cc1)S(=O)(=O)c1ccccc1 | > 100 µM | – | > 100 µM | > 100 | > 100 µM | – | > 100 µM | – | – | – | – | – | – | – | – | – | – | – | – | –
COc1ccc2nc3ccccc3c(NCCN(CCCl)CCCl)c2c1 | – | 4.04 µM | 1.89 µM | 3.2 | 2.4 µM | 4.53 | 2.25 µM | – | – | 4.71 | – | – | – | – | – | – | – | – | – | –
O=C(CC(=O)c1cccc([N+](=O)[O-])c1)C(=O)Nc1ccccc1 | > 100 µM | > 100 µM | > 100 µM | > 100 | > 100 µM | > 100 | > 100 µM | – | > 100 µM | > 100 | – | – | – | – | – | – | – | – | – | –
CN1C2(c3ccccc3)C(C(=O)c3ccccc3)=C(C(=O)c3ccccc3)C1(c1ccccc1)c1c(-c3ccccc3)sc(-c3ccccc3)c12 | > 100 µM | > 100 µM | – | > 100 | > 100 µM | > 100 | > 100 µM | – | – | – | – | – | – | – | – | – | – | – | – | –
Cc1ccc(NC(=O)CC2SC(=Nc3ccc(Cl)cc3)NC2=O)cc1C (configuration not stated) | 34.3 µM | 38.5 µM | – | 36.1 | 33.5 µM | 44.3 | 34 µM | – | 32.5 µM | – | – | – | – | – | – | – | – | – | – | –
Cc1ccccc1-n1c(CCl)nc2ccc(Br)cc2c1=O | > 100 µM | 16.6 µM | – | 19.9 | 39.9 µM | 52.2 | 18.5 µM | – | 55.3 µM | 42.1 | – | – | – | – | – | – | – | – | – | –
CC1=C(C(=O)Nc2ccc(C)cc2)C(c2cccc([N+](=O)[O-])c2)C(C(=O)Nc2ccc(C)cc2)=C(C)N1 | > 100 µM | > 100 µM | 50.7 µM | 63.4 | 48 µM | > 100 | > 100 µM | – | 80.2 µM | 91.3 | – | – | – | – | – | – | – | – | – | –
CC[As](CC)SCC1OC(OC(C)=O)C(OC(C)=O)C(OC(C)=O)C1OC(C)=O (configuration not stated) | 29.4 µM | 30.9 µM | 32 µM | 27.5 | 32.7 µM | 34.1 | 3.77 µM | – | 29.6 µM | 6.64 | – | – | – | – | – | – | – | – | – | –
CC1=CC[C@@H](C(C)(C)O)C[C@@H]1O | – | > 5000 µM | > 5000 µM | > 5000 | > 5000 µM | > 5000 | > 5000 µM | – | – | > 5000 | – | – | – | – | – | – | – | – | – | –
Cc1cc(C)nc(NS(=O)(=O)c2ccc(NC(=O)COC(=O)c3cccc4c(=O)c5ccccc5[nH]c34)cc2)n1 | > 100 µM | > 100 µM | > 100 µM | 42.1 | > 100 µM | > 100 | > 100 µM | – | – | – | – | – | – | – | – | – | – | – | – | –
COc1ccc([C@@H]2OC(=O)C3C2C(=O)O[C@H]3c2ccc(OC)cc2)cc1 (some centres not stated) | > 100 µM | > 100 µM | > 100 µM | > 100 | > 100 µM | > 100 | > 100 µM | – | > 100 µM | > 100 | – | – | – | – | – | – | – | – | – | –
COc1cc(CC(=O)O)c([N+](=O)[O-])cc1OC | > 100 µM | > 100 µM | – | > 100 | > 100 µM | > 100 | > 100 µM | – | – | > 100 | – | – | – | – | – | – | – | – | – | –
COC(=O)C1=CC(=O)[C@@H]2CCCC[C@H]12 | > 100 µM | > 100 µM | – | > 100 | > 100 µM | > 100 | > 100 µM | – | > 100 µM | > 100 | – | – | – | – | – | – | – | – | – | –
[CH3][Hg]/[N]=C(/N)NC#N | 27.5 µM | 16.9 µM | – | 25.2 | 33.4 µM | 27.1 | 3.08 µM | 4.63 µM | 17.1 µM | – | 1.43 µM | 13.5 | 4.27 µM | – | – | 12.1 µM | – | 17.3 µM | 4.76 µM | –
Cc1cc(C)c(/C=N/NS(=O)(=O)c2ccccc2)c(C)c1 | > 100 µM | > 100 µM | – | > 100 | > 100 µM | > 100 | > 100 µM | – | > 100 µM | > 100 | – | – | – | – | – | – | – | – | – | –
Fc1ccc(N=C2C=CC(=Nc3ccc(F)cc3)c3ccccc32)cc1 | > 100 µM | > 100 µM | > 100 µM | > 100 | > 100 µM | > 100 | > 100 µM | – | > 100 µM | – | – | – | – | – | – | – | – | – | – | –
